# ChEMBL document CHEMBL5344455, “Discovery and Characterization of Active CBP/EP300 Degraders Targeting the HAT Domain” (ACS Med Chem Lett, 2024)
# The source made the active and inactive calls. The rule behind the calls is not given here.
# Assays:
# [1] = molecular target: T1, Protein cereblon/CREB-binding protein (Homo sapiens, UniProt Q92793+Q96SW2); assay: Protac activity at CRBN/CBP in human LP-1 cells assessed as protein remaining at 5 uM after 16 hrs by Western blotting analysis; assay type: cell-based
# [2] = molecular target: T2, Protein cereblon/Histone acetyltransferase p300 (Homo sapiens) (UniProt Q09472+Q96SW2); assay: Protac activity at CRBN/EP300 in human LP-1 cells assessed as protein remaining at 5 uM after 16 hrs by Western blotting analysis; assay type: cell-based
# T2 sequence (Q09472 2-2414 limits assumed): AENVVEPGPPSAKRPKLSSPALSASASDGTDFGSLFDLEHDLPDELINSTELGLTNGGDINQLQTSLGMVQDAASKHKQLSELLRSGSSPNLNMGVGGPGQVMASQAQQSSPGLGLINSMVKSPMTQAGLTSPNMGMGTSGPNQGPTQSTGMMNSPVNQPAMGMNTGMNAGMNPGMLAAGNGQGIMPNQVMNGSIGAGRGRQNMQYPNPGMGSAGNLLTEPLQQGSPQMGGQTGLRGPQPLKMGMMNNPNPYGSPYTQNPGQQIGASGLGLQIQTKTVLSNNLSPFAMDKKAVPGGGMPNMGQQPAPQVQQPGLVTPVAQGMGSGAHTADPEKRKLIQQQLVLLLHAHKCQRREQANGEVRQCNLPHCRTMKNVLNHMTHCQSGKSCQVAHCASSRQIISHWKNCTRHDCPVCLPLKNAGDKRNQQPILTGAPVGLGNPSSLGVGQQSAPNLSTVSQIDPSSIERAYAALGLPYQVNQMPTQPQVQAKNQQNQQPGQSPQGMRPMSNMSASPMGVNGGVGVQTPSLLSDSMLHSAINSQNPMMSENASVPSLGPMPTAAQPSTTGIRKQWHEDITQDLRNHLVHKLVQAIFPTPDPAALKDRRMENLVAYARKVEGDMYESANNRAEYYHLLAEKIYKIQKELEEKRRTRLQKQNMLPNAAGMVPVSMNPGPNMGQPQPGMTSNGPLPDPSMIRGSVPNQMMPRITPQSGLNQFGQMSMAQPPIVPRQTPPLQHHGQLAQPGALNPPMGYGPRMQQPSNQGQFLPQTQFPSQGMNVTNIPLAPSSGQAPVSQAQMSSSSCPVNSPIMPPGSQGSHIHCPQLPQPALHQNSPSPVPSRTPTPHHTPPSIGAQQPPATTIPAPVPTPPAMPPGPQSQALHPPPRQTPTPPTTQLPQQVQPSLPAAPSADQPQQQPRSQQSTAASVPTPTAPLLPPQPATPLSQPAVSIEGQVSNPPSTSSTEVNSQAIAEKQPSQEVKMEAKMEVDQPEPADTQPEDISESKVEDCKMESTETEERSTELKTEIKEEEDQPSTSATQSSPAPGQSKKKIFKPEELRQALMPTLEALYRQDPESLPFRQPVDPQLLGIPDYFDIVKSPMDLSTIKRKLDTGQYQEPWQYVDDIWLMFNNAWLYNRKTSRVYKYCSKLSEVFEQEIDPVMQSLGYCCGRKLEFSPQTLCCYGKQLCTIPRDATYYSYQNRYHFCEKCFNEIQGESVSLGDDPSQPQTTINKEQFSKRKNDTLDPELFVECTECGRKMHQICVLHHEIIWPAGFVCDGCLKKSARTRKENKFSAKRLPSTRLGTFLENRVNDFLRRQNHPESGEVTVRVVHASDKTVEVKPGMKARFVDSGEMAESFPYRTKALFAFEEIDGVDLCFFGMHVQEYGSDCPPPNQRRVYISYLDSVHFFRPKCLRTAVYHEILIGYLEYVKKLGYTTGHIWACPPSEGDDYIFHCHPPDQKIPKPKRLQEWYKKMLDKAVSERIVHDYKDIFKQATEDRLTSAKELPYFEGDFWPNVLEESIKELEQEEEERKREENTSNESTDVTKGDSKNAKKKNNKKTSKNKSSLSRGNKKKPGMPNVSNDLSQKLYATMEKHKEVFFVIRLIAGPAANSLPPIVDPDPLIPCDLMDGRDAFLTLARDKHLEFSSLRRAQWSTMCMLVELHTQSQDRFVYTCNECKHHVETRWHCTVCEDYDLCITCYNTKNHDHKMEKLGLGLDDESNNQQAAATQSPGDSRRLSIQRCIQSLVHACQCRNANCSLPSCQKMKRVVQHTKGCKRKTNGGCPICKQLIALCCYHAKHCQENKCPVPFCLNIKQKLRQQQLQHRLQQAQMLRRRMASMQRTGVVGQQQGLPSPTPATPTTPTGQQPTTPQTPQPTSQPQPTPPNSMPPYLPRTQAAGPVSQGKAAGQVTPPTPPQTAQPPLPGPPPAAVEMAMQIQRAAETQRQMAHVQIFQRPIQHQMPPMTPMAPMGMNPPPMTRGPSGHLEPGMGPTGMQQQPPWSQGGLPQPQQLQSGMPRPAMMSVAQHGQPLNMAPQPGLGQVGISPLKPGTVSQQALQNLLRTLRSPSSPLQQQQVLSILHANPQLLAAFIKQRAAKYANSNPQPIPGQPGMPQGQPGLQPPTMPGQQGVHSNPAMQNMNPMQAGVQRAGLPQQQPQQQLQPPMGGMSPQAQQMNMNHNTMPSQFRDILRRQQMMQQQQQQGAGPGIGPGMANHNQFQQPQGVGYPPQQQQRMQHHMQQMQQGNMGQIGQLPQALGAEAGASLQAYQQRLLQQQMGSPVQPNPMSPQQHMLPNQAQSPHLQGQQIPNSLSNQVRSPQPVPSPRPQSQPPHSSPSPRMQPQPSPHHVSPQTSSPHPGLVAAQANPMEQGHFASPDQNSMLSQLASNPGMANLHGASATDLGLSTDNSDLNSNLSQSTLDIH
# T2 sequence (Q96SW2 whole entry partner): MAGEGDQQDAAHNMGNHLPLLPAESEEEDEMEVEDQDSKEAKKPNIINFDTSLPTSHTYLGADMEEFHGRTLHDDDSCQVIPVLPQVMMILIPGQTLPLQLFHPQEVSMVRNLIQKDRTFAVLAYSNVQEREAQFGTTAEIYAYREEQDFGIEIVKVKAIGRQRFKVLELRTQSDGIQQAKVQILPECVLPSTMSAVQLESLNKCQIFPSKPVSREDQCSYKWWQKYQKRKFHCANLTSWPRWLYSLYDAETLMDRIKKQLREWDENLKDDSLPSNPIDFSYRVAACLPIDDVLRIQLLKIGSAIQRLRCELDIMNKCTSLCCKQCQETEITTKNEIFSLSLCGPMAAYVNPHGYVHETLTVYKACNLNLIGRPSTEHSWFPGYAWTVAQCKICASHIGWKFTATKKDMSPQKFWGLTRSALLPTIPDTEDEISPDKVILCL
# LP-1 [3] = assay: Antiproliferative activity against human LP-1 cells assessed as growth inhibition incubated for 3 days by fluorescence based assay; assay type: functional; settings: LP-1, 72 h, time 3 day
# CREB-binding protein = CREB-binding protein (Homo sapiens, UniProt Q92793); assay: Inhibition of CBP (unknown origin) by radiometric assay
# [4] = molecular target: T1, Protein cereblon/CREB-binding protein; assay: Protac activity at CRBN/CBP in human MM1.S cells at 5 uM after 16 hrs by Western blotting analysis; assay type: cell-based
# [5] = molecular target: T2, Protein cereblon/Histone acetyltransferase p300 (Homo sapiens); assay: Protac activity at CRBN/EP300 in human LP-1 cells at 5 uM after 16 hrs by Western blotting analysis; assay type: cell-based
# [6] = molecular target: T1, Protein cereblon/CREB-binding protein; assay: Protac activity at CRBN/CBP in human LP-1 cells at 5 uM after 16 hrs by Western blotting analysis; assay type: cell-based
# [7] = molecular target: T2, Protein cereblon/Histone acetyltransferase p300 (Homo sapiens); assay: Protac activity at CRBN/EP300 in human MM1.S cells at 5 uM after 16 hrs by Western blotting analysis; assay type: cell-based
# LP-1 [8] = assay: Protac activity at IAP/EP300 in human LP-1 cells assessed as protein remaining at 5 uM after 16 hrs by Western blotting analysis; assay type: cell-based
# LP-1 [9] = assay: Protac activity at IAP/CBP in human LP-1 cells assessed as protein remaining at 5 uM after 16 hrs by Western blotting analysis; assay type: cell-based
# [10] = molecular target: von Hippel-Lindau disease tumor suppressor/Histone acetyltransferase p300 (Homo sapiens) (UniProt Q09472+P40337); assay: Protac activity at VHL/EP300 in human LP-1 cells assessed as protein remaining at 5 uM after 16 hrs by Western blotting analysis; assay type: cell-based
# [11] = molecular target: von Hippel-Lindau disease tumor suppressor/CREB-binding protein (Homo sapiens) (UniProt Q92793+P40337); assay: Protac activity at VHL/CBP in human LP-1 cells assessed as protein remaining at 5 uM after 16 hrs by Western blotting analysis; assay type: cell-based
# [12] = molecular target: T1, Protein cereblon/CREB-binding protein; assay: Protac activity at CRBN/CBP degradation in human LP-1 cells assessed as induction of ternary complex formation by measuring fluorescent foci at 2 uM after 6 hrs by fluorescence microscopic analysis; assay type: cell-based
# RPMI-8226 = assay: Antiproliferative activity against human RPMI-8226 cells; assay type: functional, cell-based
# MOLT-4 = assay: Antiproliferative activity against human MOLT-4 cells; assay type: functional, cell-based
# HL-60(TB) = assay: Antiproliferative activity against human HL-60(TB) cells; assay type: functional, cell-based
# SR = assay: Antiproliferative activity against human SR cells; assay type: functional, cell-based
# [13] = molecular target: T1, Protein cereblon/CREB-binding protein; assay: Protac activity at CRBN/CBP in human LP-1 cells at 5 uM after 8 to 48 hrs by Western blotting analysis; assay type: cell-based; settings: time 8-48 hrs
# [14] = molecular target: T1, Protein cereblon/CREB-binding protein; assay: Protac activity at CRBN/CBP in human LP-1 cells after 16 hrs by Western blotting analysis; assay type: cell-based
# K562 = assay: Antiproliferative activity against human K562 cells; assay type: functional, cell-based
# [15] = molecular target: T1, Protein cereblon/CREB-binding protein; assay: Protac activity at CRBN/CBP degradation in human LP-1 cells at 5 uM preincubated with MG-132 for 1 hr followed by compound addition and measured after 16 hrs by Western blotting analysis; assay type: cell-based
# [16] = molecular target: T1, Protein cereblon/CREB-binding protein; assay: Protac activity at CRBN/CBP degradation in human LP-1 cells at 5 uM preincubated with pomalidomide for 1 hr followed by compound addition and measured after 16 hrs by Western blotting analysis; assay type: cell-based
# CCRF-CEM = assay: Antiproliferative activity against human CCRF-CEM cells; assay type: functional, cell-based
# [17] = molecular target: T1, Protein cereblon/CREB-binding protein; assay: Protac activity at CRBN/CBP degradation in human LP-1 cells at 5 uM preincubated with CPI-1612 for 1 hr followed by compound addition and measured after 16 hrs by Western blotting analysis; assay type: cell-based
structure (smiles),measurement,setting,value
C[C@H](CN[C@@H](C(=O)Nc1ccc(-c2cnn(CCCC(=O)NCCCCCCCCNc3ccc4c(c3)C(=O)N(C3CCC(=O)NC3=O)C4=O)c2)cn1)c1ccccc1)c1ccc(C#N)cc1 (some centres not stated),Activity,[1],> 95%
same,Activity,[2],95%
same,GI50,LP-1 [3],260 nM
CCOCCNC(=O)CCn1cc(-c2ccc(NC(=O)C(NCC(C)c3ccc(C#N)cc3)c3ccccc3)nc2)cn1 (configuration not stated),IC50,CREB-binding protein,1870 nM
C[C@H](CN[C@@H](C(=O)Nc1ccc(-c2cnn(C)c2)cn1)c1ccccc1)c1ccc(C#N)cc1,IC50,CREB-binding protein,116 nM
same,GI50,LP-1 [3],5 nM
C[C@H](N(Cc1ccc(F)cc1)C(=O)CN1C(=O)O[C@@]2(CCc3cc(NC(=O)CCCCCCCCCCCNc4ccc5c(c4)C(=O)N(C4CCC(=O)NC4=O)C5=O)ccc32)C1=O)C(F)(F)F (some centres not stated),Activity,[4],inactive
same,Activity,[5],inactive
same,Activity,[6],inactive
same,Activity,[7],inactive
CCOCCNC(=O)CCCn1cc(-c2ccc(NC(=O)C(NCC(C)c3ccc(C#N)cc3)c3ccccc3)nc2)cn1 (configuration not stated),IC50,CREB-binding protein,1010 nM
C[C@H](CN[C@@H](C(=O)Nc1ccc(-c2cnn(CCCC(=O)NCCOCCOCCOCCNc3cccc4c3C(=O)N(C3CCC(=O)NC3=O)C4=O)c2)cn1)c1ccccc1)c1ccc(C#N)cc1 (some centres not stated),Activity,[1],> 95%
same,Activity,[2],76%
same,GI50,LP-1 [3],500 nM
CN[C@@H](C)C(=O)N[C@H](C(=O)N1C[C@@H](NC(=O)CCOCCOCCNC(=O)CCCn2cc(-c3ccc(NC(=O)[C@H](NC[C@@H](C)c4ccc(C#N)cc4)c4ccccc4)nc3)cn2)C[C@H]1C(=O)Nc1c(F)cccc1F)C(C)(C)C,Activity,LP-1 [8],93%
same,Activity,LP-1 [9],87%
same,GI50,LP-1 [3],> 10000 nM
C[C@H](CN[C@@H](C(=O)Nc1ccc(-c2cnn(CCCC(=O)NCCOCCOCCOCCOCCNc3cccc4c3C(=O)N(C3CCC(=O)NC3=O)C4=O)c2)cn1)c1ccccc1)c1ccc(C#N)cc1 (some centres not stated),Activity,[1],Active
same,Activity,[2],Active
CN[C@@H](C)C(=O)N[C@H](C(=O)N1C[C@@H](NC(=O)CCOCCOCCOCCNC(=O)CCCn2cc(-c3ccc(NC(=O)[C@H](NC[C@@H](C)c4ccc(C#N)cc4)c4ccccc4)nc3)cn2)C[C@H]1C(=O)Nc1c(F)cccc1F)C(C)(C)C,Activity,LP-1 [8],> 95%
same,Activity,LP-1 [9],> 95%
same,GI50,LP-1 [3],500 nM
Cc1ncsc1-c1ccc(CNC(=O)[C@H]2C[C@H](O)CN2C(=O)[C@H](NC(=O)CCOCCOCCOCCNC(=O)CCCn2cc(-c3ccc(NC(=O)[C@H](NC[C@@H](C)c4ccc(C#N)cc4)c4ccccc4)nc3)cn2)C(C)(C)C)cc1,Activity,[10],89%
same,Activity,[11],> 95%
same,GI50,LP-1 [3],2200 nM
C[C@H](CN[C@@H](C(=O)Nc1ccc(-c2cnn(CCCC(=O)NCCOCCOCCOCCOCCOCCOCCNc3cccc4c3C(=O)N(C3CCC(=O)N(C)C3=O)C4=O)c2)cn1)c1ccccc1)c1ccc(C#N)cc1 (some centres not stated),Activity,[12],inactive
C[C@H](CN[C@@H](C(=O)Nc1ccc(-c2cnn(CCCC(=O)NCCOCCOCCOCCOCCOCCOCCNc3cccc4c3C(=O)N(C3CCC(=O)NC3=O)C4=O)c2)cn1)c1ccccc1)c1ccc(C#N)cc1 (some centres not stated),Activity,[1],Active
same,Activity,RPMI-8226,Active
same,EC50,[12],1200 nM
same,Activity,[4],Active
same,Activity,MOLT-4,Active
same,Activity,HL-60(TB),Active
same,Activity,SR,Active
same,Activity,[13],Active
same,EC50,[14],1300 nM
same,Activity,K562,Active
same,Activity,[2],Active
same,Activity,[15],Active
same,Activity,[16],Active
same,Activity,CCRF-CEM,Active
same,Activity,[17],Active
Cc1ncsc1-c1ccc(CNC(=O)[C@@H]2C[C@@H](O)CN2C(=O)[C@@H](NC(=O)COCCOCCNC(=O)CCCn2cc(-c3ccc(NC(=O)[C@H](NC[C@@H](C)c4ccc(C#N)cc4)c4ccccc4)nc3)cn2)C(C)(C)C)cc1,Activity,[10],> 95%
same,Activity,[11],> 95%
same,GI50,LP-1 [3],1000 nM
C[C@H](CN[C@@H](C(=O)Nc1ccc(-c2cnn(CCCC(=O)NCCOCCOCCOCCOCCOCCNc3cccc4c3C(=O)N(C3CCC(=O)NC3=O)C4=O)c2)cn1)c1ccccc1)c1ccc(C#N)cc1 (some centres not stated),Activity,[1],Active
same,Activity,[2],Active
C[C@H](CN[C@@H](C(=O)Nc1ccc(-c2cnn(CCCC(=O)NCCOCCOCCNc3cccc4c3C(=O)N(C3CCC(=O)NC3=O)C4=O)c2)cn1)c1ccccc1)c1ccc(C#N)cc1 (some centres not stated),Activity,[1],> 95%
same,Activity,[2],79%
same,GI50,LP-1 [3],330 nM
C[C@H](CN[C@@H](C(=O)Nc1ccc(-c2cnn(CCCC(=O)NCCCCCCCCNc3cccc4c3C(=O)N(C3CCC(=O)NC3=O)C4=O)c2)cn1)c1ccccc1)c1ccc(C#N)cc1 (some centres not stated),Activity,[1],87%
same,Activity,[2],79%
same,GI50,LP-1 [3],470 nM
CN[C@@H](C)C(=O)N[C@H](C(=O)N1C[C@@H](NC(=O)CCCCCCCNC(=O)CCCn2cc(-c3ccc(NC(=O)[C@H](NC[C@@H](C)c4ccc(C#N)cc4)c4ccccc4)nc3)cn2)C[C@H]1C(=O)Nc1c(F)cccc1F)C(C)(C)C,Activity,LP-1 [8],> 95%
same,Activity,LP-1 [9],> 95%
same,GI50,LP-1 [3],2300 nM
COCCNC(=O)CCCCn1cc(-c2ccc(NC(=O)C(NCC(C)c3ccc(C#N)cc3)c3ccccc3)nc2)cn1 (configuration not stated),IC50,CREB-binding protein,819 nM
Nc1cccc2c1C(=O)N(C1CCC(=O)NC1=O)C2=O (configuration not stated) [POMALIDOMIDE],GI50,LP-1 [3],> 10000 nM
Cc1ncsc1-c1ccc(CNC(=O)[C@@H]2C[C@@H](O)CN2C(=O)[C@@H](NC(=O)CCCCCCCNC(=O)CCCn2cc(-c3ccc(NC(=O)[C@H](NC[C@@H](C)c4ccc(C#N)cc4)c4ccccc4)nc3)cn2)C(C)(C)C)cc1,Activity,[10],> 95%
same,Activity,[11],> 95%
same,GI50,LP-1 [3],4700 nM
C[C@H](CN[C@@H](C(=O)Nc1ccc(-c2cnn(CCCC(=O)NCCOCCOCCOCCOCCOCCOCCOCCNc3cccc4c3C(=O)N(C3CCC(=O)NC3=O)C4=O)c2)cn1)c1ccccc1)c1ccc(C#N)cc1 (some centres not stated),Activity,[1],Active
same,Activity,[2],Active
